Where “and” joins values, the source holds several entries; their conditions need not be identical. Equal values may be shown once.
How the values were obtained:
[1] = test system: deglycosylated form of BSM (dBSM); experiment: Loading capacity of deglycosylated BSM (dBSM) for hydrophobic ligands; format: binding, bovine; conditions: for dBSM NBL (number of bound ligands per dBSM monomer) / dBSM UP (%): deglycosylated BSM
Description: To evaluate this assumption, a deglycosylated form of BSM (dBSM) was prepared and repeated binding experiments with this modified protein were carried out. Complexes of C60 with dBSM were prepared as described above for the complexation with BSM.
dBSM was prepared by base-catalyzed β-elimination of periodate-oxidized glycans, using method reported by Kim and coworkers.
A deglycosylated form of BSM (dBSM) was prepared and the binding experiments with this protein were repeated. Complexes of Ant, Bap and Cor ligands with dBSM were prepared as described above for the complexation with BSM. dBSM was prepared as described above in the context of fullerene, nanotubes, and inorganic nanostructures.
A solution of BSM protein (100 mg) in NaOH (0.1 M, 10 mL) was stirred at room temperature for 30 min. The resulting solution was cooled to 4° C. NaIO4 (100 mM) in acetate buffer (100 mM, pH 4.5) was added and the mixture was stirred overnight at 4° C. After that time, glycine (200 mg) was added and the reaction mixture was allowed to warm to room temperature and was stirred for 30 min. NaOH (1.0 M, 1 mL) was added and the solution was stirred for an additional 30 min. The resulting solution was dialyzed against deionized water overnight and was then centrifuged and lyophilized. The degree of deglycosylation was measured by using a standard periodic acid/Schiff assay (Sigma-Aldrich).
(§1) To a solution of BSM or deglycosylated BSM protein (4 mg mL^−1, 1.5 mL) in sodium phosphate buffer (2 mM, pH 7.2) a solid ligand (1 mg) was added at room temperature and the mixture was stirred at 500-700 rpm for 48 hrs. After that time, the reaction mixture was filtered through a 0.45 μm filter and the solution was loaded on a Sephadex G-25 gel-permeation column (Pharmacia Biotech). Protein complexes were eluted with a sodium phosphate buffer (20 mM, pH 7.2) and elution was monitored by UV-vis spectroscopy.
(§2) The amount of BSM or deglycosylated BSM protein in complexes was determined by using a standard periodic acid/Schiff assay (Sigma-Aldrich). The amount of a ligand in each complex was determined by UV-vis spectroscopy after protein hydrolysis and quantitative extraction of the ligand by chloroform. To a sample of complex in a sodium phosphate buffer (1 mL, 20 mM, pH 7.2), chloroform (1 mL) and hydrochloric acid (1 mL, 12 M) were added at room temperature. The reaction mixture was sealed in a glass pressure vessel and heated at 80° C. with vigorous stirring for 3 hrs. After cooling to a room temperature, the organic phase containing extracted ligand was analyzed by UV-vis spectroscopy.

[2] = Binding/dissolution of hydrophobic ligands by oligosaccharide: arabic acid; conditions: dissolved ligand divided by amount of oligosaccharide
Description: (§3) The subsequent series of complementary experiments was designed to examine capabilities of different size oligosaccharides to bind selected hydrophobic ligands.
(§4) Representative oligosaccharides, including β-cyclodextrin, starch, arabic acid and lactose, were incubated with C60, according to the described above protocol for the BSM complexes preparation. […] Therefore, it is believed that interactions between the saccharide residues and the polypeptide backbone in a sugar-substituted polypeptide dictate certain arrangements of the saccharide moieties in space, and these arrangements play a role in the complexation of various hydrophobic materials.
(§5) The subsequent series of complementary experiments was designed to examine capabilities of different size oligosaccharides to bind selected hydrophobic ligands. Representative oligosaccharides, including β-cyclodextrin, starch, arabic acid and lactose, were incubated with Ant, Bap and Cor ligands, according to the described above protocol for the BSM complexes preparation. The LUP values were calculated by dividing the amount of the dissolved ligand by the amount of the oligosaccharide present in the complex (if formed). No clear preference was for binding of particular ligands to certain oligosaccharides. In comparison to BSM, the dissolution capability of arabic acid was drastically lower for all tested ligands. It was practically negligible in the cases of lactose, β-cyclodextrin and starch (Table 1).

[3] = test system: Bovine Submaxillary Mucin (BSM); experiment: Loading capacity of BSM glycoprotein for hydrophobic ligands (ligand uptake); format: binding; conditions: for BSM NBL (average number of bound ligands per BSM monomer): LUP multiplied by BSM monomer-to-ligand molecular weight ratio; for BSM LUP (ligand uptake percentage, ligand-to-BSM weight ratio): extracted ligand (hydrolysis-extraction, UV-vis) divided by BSM protein (PAS assay)
Text: In order to determine the loading capacity of BSM glycoprotein for the examined ligands, elemental analysis measurements were preformed. The carbon content of each complex (in the case of C60 and MWNT containing complexes) was compared to the carbon content found in the native BSM. This was used to determine the amount of ligand in the complex and by that, the mucin-ligand weight ratio (ligand uptake percentage—LUP, Table 1).
In this procedure, the amount of the BSM protein in the mucin complex was analyzed by a periodic acid/Schiff (PAS) assay.
In more detail, in order to determine the amount of C60, a hydrolysis-extraction process was used which included heating of the complex in a heterogeneous mixture of hydrochloric acid and chloroform at 80° C., in a sealed vessel, and then the amount of a chloroform-extracted ligand was determined by UV-vis spectroscopy.
Additional calculation determined the average number of bound ligand (NBL) per BSM monomer by multiplication of the LUP value by the BSM monomer-to-ligand molecular weight ratio (Eq. 2).
In order to ascertain the capacity of BSM glycoprotein for various ligands, the amounts of Ant, Bap and Cor ligands in corresponding BSM complexes were determined. The amount of the BSM protein in each BSM complex was analyzed by a periodic acid/Schiff (PAS) assay.
In order to determine the amount of ligand in each complex, the above-described hydrolysis-extraction process was employed and determined the amount of chloroform-extracted ligand by UV-vis spectroscopy.
The LUP values were calculated by dividing the amount of the extracted ligand by the amount of the BSM protein present in the complex. […] The average number of bound ligands (NBL) per BSM monomer was also calculated by multiplication of the LUP value by the BSM monomer-to-ligand molecular weight ratio, as discussed above.
as §1, §2

[4] = Binding/dissolution of hydrophobic ligands by oligosaccharide: starch; conditions: dissolved ligand divided by amount of oligosaccharide
Description: as §3, §4, §5

[5] = Incubation of representative oligosaccharides with C60, detection in solution by UV-vis or SEC-HPLC; format: physicochemical; conditions: β-cyclodextrin, starch, arabic acid and lactose
Description: as §3, §4

[6] = Binding/dissolution of hydrophobic ligands by oligosaccharide: β-cyclodextrin; conditions: dissolved ligand divided by amount of oligosaccharide
Description: as §3, §4
as §5, with “It was practically negligible in the cases of lactose, β-cyclodextrin and starch (Table 1).” left out

Compound	dBSM NBL (number of bound ligands per dBSM monomer) [1]	dBSM UP (%) [1]	Arabic Acid LUP [2]	BSM NBL (average number of bound ligands per BSM monomer) [3]	BSM LUP (ligand uptake percentage, ligand-to-BSM weight ratio) [3]	BSM LUP (ligand uptake percentage, ligand-to-BSM weight ratio) ([3]; listed as Coronene)	Starch LUP [4]	C60 detected in the solution after incubation with oligosaccharides [5]	uptake capacity of dBSM, ligands per monomer [1]	average number of bound ligand (NBL) per BSM monomer [3]	β-Cyclodextrin LUP [6]
c1cc2ccc3ccc4ccc5ccc6ccc1c1c2c3c4c5c61 [Cor, coronene]	2.1 ± 0.2	0.61 ± 0.12%	0.18 ± 0.04%	44 ± 9	7.8 ± 1.5%	7.7%	0.18 ± 0.04%				
c12c3c4c5c1c1c6c7c2c2c8c3c3c9c4c4c%10c5c5c1c1c6c6c%11c7c2c2c7c8c3c3c8c9c4c4c9c%10c5c5c1c1c6c6c%11c2c2c7c3c3c8c4c4c9c5c1c1c6c2c3c41 [Ligand C60, C60]	1.9 ± 0.1	1.4% and 1.41 ± 0.28%		36 ± 6	15.1% and 15.1 ± 2.4%		0.35 ± 0.07%	no C60 was detected	2 ligand molecules per monomeric unit	40 ligands per monomeric unit of BSM	0.12 ± 0.02%
c1ccc2c(c1)cc1ccc3cccc4ccc2c1c34 [Bap, benzo[a]pyrene]	1.2 ± 0.2	0.23 ± 0.05%	0.09 ± 0.02%	36 ± 8	5.4 ± 1.1%		0.11 ± 0.02%				
c1ccc2cc3ccccc3cc2c1 [Ant, anthracene]	2.2 ± 0.3	0.28 ± 0.06%	0.56 ± 0.11%	43 ± 9	4.5% and 4.5 ± 0.9%						
